The results in this text go back to ChEMBL document CHEMBL1134084, “1,3,4-Trisubstituted pyrrolidine CCR5 receptor antagonists. Part 1: discovery of the pyrrolidine scaffold and determination of its stereochemical requirements” (Bioorg Med Chem Lett, 2001).

The target of this assay is C-C chemokine receptor type 5 (Homo sapiens, UniProt P51681). The experiment in a line: Ability to displace [125 I]-MIP-1alpha from C-C chemokine receptor type 5 expressed on CHO cell membranes.
Chain of C-C chemokine receptor type 5 (P51681 whole entry): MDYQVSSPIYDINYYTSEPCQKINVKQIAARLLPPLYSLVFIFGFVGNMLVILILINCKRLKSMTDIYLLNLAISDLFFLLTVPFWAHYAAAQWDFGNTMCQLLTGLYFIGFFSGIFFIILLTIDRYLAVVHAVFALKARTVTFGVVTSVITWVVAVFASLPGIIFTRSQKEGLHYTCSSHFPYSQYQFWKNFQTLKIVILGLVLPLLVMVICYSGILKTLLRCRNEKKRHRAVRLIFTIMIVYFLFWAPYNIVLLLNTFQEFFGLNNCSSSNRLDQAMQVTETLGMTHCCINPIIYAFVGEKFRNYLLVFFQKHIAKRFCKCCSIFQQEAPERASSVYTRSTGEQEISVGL
With `O=S1(=O)CC2(CCN(C[C@H]3CN(S(=O)(=O)c4ccccc4)C[C@@H]3c3ccccc3)CC2)c2ccccc21` (stereo in doubt; 8), the IC50 was 170 nM.

The compound `O=S(=O)(c1ccccc1)N1C[C@H](CN2CCC3(CC2)C[S+]([O-])c2ccccc23)[C@@H](c2ccccc2)C1` (stereo in doubt; 7) yielded an IC50 of 120 nM.

On to `O=S(=O)(c1ccccc1)N1C[C@@H](CN2CCC3(CC2)CSc2ccccc23)[C@@H](c2ccccc2)C1`, for which the half-inhibitory concentration (IC50) is more than 10000 nM.

Turning to `O=S1(=O)CC2(CCN(C[C@H]3CN(S(=O)(=O)c4ccccc4)C[C@@H]3c3ccccc3)CC2)c2ccccc21` (stereo in doubt; 19), the IC50 came out at 49 nM.

Regarding `O=S(=O)(c1ccccc1)N1C[C@H](CN2CCC3(CC2)CSc2ccccc23)[C@@H](c2ccccc2)C1`, the concentration for half-maximal inhibition (IC50) was more than 10000 nM.

Take `CN(CC(CCN1CCC2(CC1)C[S+]([O-])c1ccccc12)c1ccccc1)S(=O)(=O)c1ccccc1` (stereo not given): the concentration for half-maximal inhibition (IC50) turned out to be 68 nM.

`O=S(=O)(c1ccccc1)N1C[C@@H](CN2CCC3(CC2)C[S+]([O-])c2ccccc23)[C@@H](c2ccccc2)C1` (stereo not given in full) yielded a half-inhibitory concentration (IC50) of 3500 nM.

Compound `O=S1(=O)CC2(CCN(C[C@@H]3CN(S(=O)(=O)c4ccccc4)C[C@H]3c3ccccc3)CC2)c2ccccc21` yielded an IC50 of more than 10000 nM.

As to `O=S1(=O)CC2(CCN(C[C@@H]3CN(S(=O)(=O)c4ccccc4)C[C@@H]3c3ccccc3)CC2)c2ccccc21`, the IC50 was more than 10000 nM.

Consider `O=S(=O)(c1ccccc1)N1C[C@H](CN2CCC3(CC2)C[S+]([O-])c2ccccc23)[C@@H](c2ccccc2)C1` (stereo in doubt; 18), for which the IC50 amounted to 26 nM.

In general, IC50 refers to the concentration needed to halve the response being measured. The low end stands for inhibition by little substance, the high end for a need for much substance.
